Biological target: T1, PARS (Mus musculus, UniProt P11103)
T1 construct: endogenous in cells; host or cells: Raw murine macrophages
Assay: Cell protection assay: PARS activity in peroxynitrite-treated Raw murine macrophages
Format: cell-based
Conditions: compound 15 min before peroxynitrite (750 μM) for 15 min, PARS activity by 3H-NAD incorporation, EC50 from dose-response curve
Protocol: Raw murine macrophages were treated with an illustrative Tetracyclic Amino Compound or Tetracyclic Carboxamido Compound for 15 minutes prior to the addition of peroxynitrite (750 μM) for a further 15 minutes. For the measurement of PARS activity, the media were removed and replaced with 0.5 ml HEPES (pH 7.5) containing 0.01% digitonin and ^3H-NAD (0.5 μCi ml^−1, final concentration of NAD^+ in buffer is 20 nM/L) for 20 minutes. The cells were then scraped from the wells and placed in Eppendorf tubes containing 200 μl of 50% (w/v) ice-cold trichloroacetic acid (TCA). The tubes were then placed at 4° C. After 4 hr the tubes were centrifuged at 1800 g for 10 minutes and the supernatant removed. The pellets were washed twice with 500 μl ice-cold 5% TCA. The pellets were solubilized in 250 μl NaOH (0.1 M) containing 2% SDS overnight at 37° C. and the PARS activity was then determined by measuring the radioactivity incorporated using a Wallac scintillation counter. The solubilized protein (250 μl) was mixed with 5 ml of scintillant (ScintiSafe Plus, Fisher Scientific) before being counted for 10 minutes. The EC50 value was calculated from a dose-response curve.

T1 sequence (P11103 whole entry): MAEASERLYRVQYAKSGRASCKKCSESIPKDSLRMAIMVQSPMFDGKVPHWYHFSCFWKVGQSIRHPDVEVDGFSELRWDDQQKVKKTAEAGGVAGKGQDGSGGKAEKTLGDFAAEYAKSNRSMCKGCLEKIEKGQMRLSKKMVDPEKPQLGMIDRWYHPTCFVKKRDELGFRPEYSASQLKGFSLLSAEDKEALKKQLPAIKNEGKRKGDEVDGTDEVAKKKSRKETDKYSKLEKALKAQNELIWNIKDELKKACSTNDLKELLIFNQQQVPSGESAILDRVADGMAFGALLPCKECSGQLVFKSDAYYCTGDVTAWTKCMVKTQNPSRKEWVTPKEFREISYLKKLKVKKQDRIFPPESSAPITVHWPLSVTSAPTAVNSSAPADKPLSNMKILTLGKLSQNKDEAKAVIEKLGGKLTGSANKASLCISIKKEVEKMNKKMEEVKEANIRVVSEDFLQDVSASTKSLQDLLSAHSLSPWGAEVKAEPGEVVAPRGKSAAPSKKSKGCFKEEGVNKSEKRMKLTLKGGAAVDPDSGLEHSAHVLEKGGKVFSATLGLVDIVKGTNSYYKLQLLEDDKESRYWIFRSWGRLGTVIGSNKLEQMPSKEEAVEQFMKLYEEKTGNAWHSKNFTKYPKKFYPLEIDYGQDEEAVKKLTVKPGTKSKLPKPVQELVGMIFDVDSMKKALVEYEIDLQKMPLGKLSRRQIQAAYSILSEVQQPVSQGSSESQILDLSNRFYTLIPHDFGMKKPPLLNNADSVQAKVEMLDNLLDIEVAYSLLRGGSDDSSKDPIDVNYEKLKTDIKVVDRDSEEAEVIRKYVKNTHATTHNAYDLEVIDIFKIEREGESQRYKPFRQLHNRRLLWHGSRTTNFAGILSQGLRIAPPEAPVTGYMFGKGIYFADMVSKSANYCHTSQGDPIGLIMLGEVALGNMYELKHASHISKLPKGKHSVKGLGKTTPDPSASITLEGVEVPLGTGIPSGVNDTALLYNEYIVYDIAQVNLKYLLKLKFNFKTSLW

CN(C)CCNC(=O)c1cccc2c1Cc1c-2[nH]c(=O)c2ccccc12 [Compound 15a]
EC50: > 1500 nM

O=C(NCCCN1CCOCC1)c1ccc2c(c1)Cc1c-2[nH]c(=O)c2ccccc12 [Compound 14b]
EC50: 1100 nM

CN(C)CCCNC(=O)c1ccc2c(c1)Cc1c-2[nH]c(=O)c2ccccc12 [Compound 13b]
EC50: 900 nM

CN(C)CCCNC(=O)c1cccc2c1Cc1c-2[nH]c(=O)c2ccccc12 [Compound 15b]
EC50: > 1500 nM

O=C(NCCCN1CCOCC1)c1cccc2c1Cc1c-2[nH]c(=O)c2ccccc12 [Compound 16b]
EC50: > 1500 nM

O=C(NCCN1CCOCC1)c1ccc2c(c1)Cc1c-2[nH]c(=O)c2ccccc12 [Compound 14a]
EC50: 1100 nM

O=C(NCCN1CCOCC1)c1cccc2c1Cc1c-2[nH]c(=O)c2ccccc12 [Compound 16a]
EC50: > 1500 nM
